ChEMBL document CHEMBL1201862, “PubChem BioAssay data set” (2004)
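Interpolation was linear, between the two tested concentrations surrounding the appropriate level; five concentrations were tested over 48 hours in 96-well plates. The concentration for 50% growth inhibition is given as GI50.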 Activity calls are given as the source filed them. Rule as the data show it: active = GI50 up to about 1.1 µM and inactive = higher.

What was measured:
Assay in all cases: DTP human tumour cell line panel, 48 h
[1] = test system: SK-MEL-5
[2] = test system: MDA-MB-435
[3] = test system: T47D
[4] = test system: PC-3
[5] = test system: SW-620
[6] = test system: 786-0
[7] = test system: CAKI-1
[8] = test system: SN12C
[9] = test system: HT-29
[10] = test system: SR
[11] = test system: SF-295
[12] = test system: HOP-62
[13] = test system: OVCAR-5
[14] = test system: MOLT-4
[15] = test system: EKVX
[16] = test system: HCC 2998
[17] = test system: DU-145
[18] = test system: LOX IMVI
[19] = test system: UACC-62
[20] = test system: ACHN
[21] = test system: UACC-257
[22] = test system: NCI/ADR-RES
[23] = test system: TK-10
[24] = test system: OVCAR-8
[25] = test system: NCI-H460
[26] = test system: MCF7
[27] = test system: OVCAR-3
[28] = test system: HCT-15
[29] = test system: UO-31
[30] = test system: SK-MEL-28
[31] = test system: Malme-3M
[32] = test system: HL-60
[33] = test system: U-251
[34] = test system: OVCAR-4
[35] = test system: NCI-H23
[36] = test system: SK-OV-3
[37] = test system: K562
[38] = test system: CCRF-CEM
[39] = test system: SF-268
[40] = test system: SNB-75
[41] = test system: RPMI-8226
[42] = test system: M14
[43] = test system: A549
[44] = test system: SK-MEL-2
[45] = test system: COLO 205
[46] = test system: RXF 393
[47] = test system: IGROV-1

Compound	GI50 [1]	GI50 [2]	GI50 [3]	GI50 [5]	GI50 [6]	GI50 [7]	GI50 [10]	GI50 [12]	GI50 [13]	GI50 [14]	GI50 [19]	GI50 [20]	GI50 [22]	GI50 [25]	GI50 [26]	GI50 [30]	further results
CCn1ncc(N=O)c1N	> 100 µM (inactive)	> 100 µM (inactive)	> 100 µM (inactive)	> 100 µM (inactive)	> 100 µM (inactive)	> 100 µM (inactive)	> 100 µM (inactive)	> 100 µM (inactive)	> 100 µM (inactive)	> 100 µM (inactive)	> 100 µM (inactive)	> 100 µM (inactive)	> 100 µM (inactive)	> 100 µM (inactive)	> 100 µM (inactive)	> 100 µM (inactive)	GI50 [4]: > 100 µM (inactive); GI50 [8]: > 100 µM (inactive); GI50 [9]: > 100 µM (inactive); GI50 [11]: > 100 µM (inactive); GI50 [15]: > 100 µM (inactive); GI50 [16]: 56.2 µM (inactive); GI50 [17]: > 100 µM (inactive); GI50 [18]: > 100 µM (inactive); GI50 [21]: > 100 µM (inactive); GI50 [23]: > 100 µM (inactive); GI50 [24]: > 100 µM (inactive); GI50 [27]: > 100 µM (inactive); GI50 [28]: > 100 µM; GI50 [29]: > 100 µM (inactive)
CC1=C2C(=O)c3ccccc3C2=C(C)S(=O)(=O)O1	> 10 µM (inactive)	> 10 µM (inactive)	> 10 µM (inactive)	> 10 µM (inactive)	> 10 µM (inactive)	> 10 µM (inactive)	> 10 µM (inactive)	> 10 µM (inactive)	> 10 µM (inactive)	> 10 µM (inactive)	> 10 µM (inactive)	> 10 µM (inactive)	> 10 µM (inactive)	> 10 µM (inactive)	> 10 µM (inactive)	> 10 µM (inactive)	GI50 [31]: > 10 µM (inactive); GI50 [32]: > 10 µM (inactive); GI50 [33]: > 10 µM (inactive); GI50 [34]: > 10 µM (inactive); GI50 [35]: > 10 µM (inactive); GI50 [36]: > 10 µM (inactive); GI50 [37]: > 10 µM (inactive); GI50 [38]: > 10 µM (inactive); GI50 [39]: > 10 µM (inactive); GI50 [40]: > 10 µM (inactive); GI50 [41]: > 10 µM (inactive); GI50 [42]: > 10 µM (inactive); GI50 [43]: > 10 µM (inactive); GI50 [44]: > 10 µM (inactive); GI50 [45]: > 10 µM (inactive); GI50 [46]: > 10 µM (inactive); GI50 [47]: > 10 µM (inactive)
